Among the data in patent US9844536B2, “3-(1H-imidazo[4,5-C]pyridin-2-yl)-1H-pyrazolo[3,4-C]pyridine and therapeutic uses thereof” (Samumed, LLC, priority 2014, dated 2017) are IC50 and EC50 values, retold here.

Assay [1] deals with Wnt pathway (Sp5-Luc reporter, SW480 cells). Kind of assay: Sp5-Luc reporter gene screening assay for Wnt activity in SW480 colon carcinoma cells. Particulars: Homo sapiens. The class given is cell-based. The method, boiled down: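 IC50 values come from variable-slope four-parameter fits of luciferase signal normalized to DMSO wells. Stable Sp5-Luc reporter SW480 colon carcinoma cells were exposed to compounds in a 3-fold dilution series (source plates from 10 mM stock) for forty-two hours at 37 °C.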

A further assay has as its system LL29 cells. In words: Inhibition of the fibrotic process (αSMA staining) in TGF-β1 treated primary human fibroblasts from IPF patients. The assay is classed as cell-based. Particulars: Fibroblast, 96 h, TGF-β1 20 ng/mL, 4 days, dose-response 10 μM to 1.87 nM, read-out: Inhibition of fibrosis EC50. An excerpt: The above synthesized compounds were screened using primary human fibroblasts (derived from IPF patients) treated with TGF-β1 to determine their ability to inhibit the fibrotic process.
Primary human fibroblasts derived from IPF patients (LL29 cells) [^1Xiaoqiu Liu, et. al., “Fibrotic Lung Fibroblasts Show Blunted Inhibition by cAMP Due to Deficient cAMP Response Element-Binding Protein Phosphorylation”, Journal of Pharmacology and Experimental Therapeutics (2005), 315(2), 678-687; ^2Watts, K. L., et. al., “RhoA signaling modulates cyclin D1 expression in human lung fibroblasts; implications for idiopathic pulmonary fibrosis”, Respiratory Research (2006), 7(1), 88] were obtained from American Type Culture Collection (ATCC) and expanded in F12 medium supplemented with 15% Fetal Bovine Serum and Penicillin/Streptomycin.
Each compound was dissolved in DMSO as a 10 mM stock and used to prepare compound source plates. Serial dilution (1:2, 11-point dose-response curves from 10 μM to 1.87 nM) and compound transfer was performed using the ECHO 550 (Labcyte, Sunnyvale, Calif.) into 384-well clear bottom assay plates (Greiner Bio-One) with appropriate DMSO backfill for a final DMSO concentration of 0.1%. LL29 cells were plated at 1,500 cells/well in 80 μl/well F12 medium supplemented with 1% Fetal Bovine Serum. One hour after addition of the cells, TGF-β1 (Peprotech; 20 ng/mL) was added to the plates to induce fibrosis (ref. 1 and 2 above). Wells treated with TGF-β1 and containing DMSO were used as controls. Cells were incubated at 37° C. and 5% CO2 for 4 days. Following incubation for 4 days, SYTOX green nucleic acid stain (Life Technologies [Thermo Fisher Scientific]) was added to the wells at a final concentration of 1 uM and incubated at room temperature for 30 min. Cells were then fixed using 4% formaldehyde (Electron Microscopy Sciences), washed 3 times with PBS followed by blocking and permeabilization using 3% Bovine Serum Albumin (BSA; Sigma) and 0.3% Triton X-100 (Sigma) in PBS. Cells were then stained with antibody specific to α-smooth muscle actin (αSMA; Abcam) (ref. 1 and 2 above) in 3% Bovine Serum Albumin (BSA; Sigma) and 0.3% Triton X-100 (Sigma) in PBS, and incubated overnight at 4° C. Cells were then washed 3 times with PBS, followed by incubation with Alexa Flor-647 conjugated secondary antibody (Life Technologies [Thermo Fisher Scientific]) and DAPI at room temperature for 1 hour. Cells were then washed 3 times with PBS and plates were sealed for imaging. αSMA staining was imaged by excitation at 630 nm and emission at 665 nm and quantified using the Compartmental Analysis program on the CellInsight CX5 (Thermo Scientific). Dead or apoptotic cells were excluded from analysis based on positive SYTOX green staining. % of total cells positive for αSMA were counted in each well and normalized to the average of 11 wells treated with TGF-31 on the same plate using Dotmatics' Studies Software. The normalized averages (fold change over untreated) of 3 replicate wells for each compound concentration were used to create dose-responses curves and EC50 values were calculated using non-linear regression curve fit in the Dotmatics' Studies Software. The EC50 values are reported.

Structures are written as SMILES. pEC50, pIC50: −log10 of the molar value. Bounds are passed on as bounds.

For `CCCC(=O)Nc1cncc(-c2cc3c(-c4nc5c(-c6ccsc6)nccc5[nH]4)n[nH]c3cn2)c1` [Compound 277, N-(5-(3-(4-(Thiophen-3-yl)-1H-imidazo[4,5-c]pyridin-2-yl)-1H-pyrazolo[3,4-c]pyridin-5-yl)pyridin-3-yl)butyramide], in assay [1], the negative logarithm of the IC50 (pIC50) (as a rule, the IC50 on a negative log10 scale, so that one unit is a factor of ten) is 7.15. Further, the pEC50 – broadly, the negative decadic logarithm of the EC50, by convention in mol/L – in the assay on LL29 cells was at least 8.05.

The compound `O=C(Nc1cncc(-c2cc3c(-c4nc5c(-c6ccsc6)nccc5[nH]4)n[nH]c3cn2)c1)C1CCC1` [Compound 280, N-(5-(3-(4-(Thiophen-3-yl)-1H-imidazo[4,5-c]pyridin-2-yl)-1H-pyrazolo[3,4-c]pyridin-5-yl)pyridin-3-yl)cyclobutanecarboxamide] gave a pIC50 in assay [1] of 7.37. The negative-log EC50 (pEC50) in the assay on LL29 cells is at most 5.00.

As to `c1ccc(CNCc2cncc(-c3cc4c(-c5nc6c(-c7ccsc7)nccc6[nH]5)n[nH]c4cn3)c2)cc1` [Compound 283, N-Benzyl-1-(5-(3-(4-(thiophen-3-yl)-1H-imidazo[4,5-c]pyridin-2-yl)-1H-pyrazolo[3,4-c]pyridin-5-yl)pyridin-3-yl)methanamine], the negative logarithm of the IC50 (pIC50) in assay [1] was 6.93. Further, the negative logarithm of the EC50 (pEC50) in the assay with LL29 cells is at least 8.05.

`CCNCc1cncc(-c2cc3c(-c4nc5c(-c6ccoc6)nccc5[nH]4)n[nH]c3cn2)c1` [Compound 292, N-((5-(3-(4-(Furan-3-yl)-1H-imidazo[4,5-c]pyridin-2-yl)-1H-pyrazolo[3,4-c]pyridin-5-yl)pyridin-3-yl)methyl)ethanamine]: the pIC50 in assay [1] was 7.09. In addition, the negative logarithm of the EC50 (pEC50) with LL29 cells was at least 8.05.

On to `CCCCC(=O)Nc1cncc(-c2cc3c(-c4nc5c(-c6ccoc6)nccc5[nH]4)n[nH]c3cn2)c1` [Compound 304, N-(5-(3-(4-(Furan-3-yl)-1H-imidazo[4,5-c]pyridin-2-yl)-1H-pyrazolo[3,4-c]pyridin-5-yl)pyridin-3-yl)pentanamide], for which, in assay [1], the pIC50 is 7.19. In addition, the pEC50 with LL29 cells was at most 5.00.

In turn, `c1cc2[nH]c(-c3n[nH]c4cnc(-c5cncc(CNCC6CCCC6)c5)cc34)nc2c(-c2ccoc2)n1` [Compound 310, 1-Cyclopentyl-N-((5-(3-(4-(furan-3-yl)-1H-imidazo[4,5-c]pyridin-2-yl)-1H-pyrazolo[3,4-c]pyridin-5-yl)pyridin-3-yl)methyl)methanamine] showed a pIC50 in assay [1] of 6.40. Moreover, in the assay on LL29 cells, the pEC50 was under 5.00.

Compound `CN(C)c1cncc(-c2cc3c(-c4nc5c(-c6cccs6)nccc5[nH]4)n[nH]c3cn2)c1` [Compound 319, N,N-Dimethyl-5-(3-(4-(thiophen-2-yl)-1H-imidazo[4,5-c]pyridin-2-yl)-1H-pyrazolo[3,4-c]pyridin-5-yl)pyridin-3-amine] had a negative-log IC50 (pIC50) in assay [1] of 7.27. Also, in the assay with LL29 cells, the pEC50 was at least 8.05.

`CN(C)Cc1cncc(-c2cc3c(-c4nc5c(-c6cccs6)nccc5[nH]4)n[nH]c3cn2)c1` [Compound 325, N,N-Dimethyl-1-(5-(3-(4-(thiophen-2-yl)-1H-imidazo[4,5-c]pyridin-2-yl)-1H-pyrazolo[3,4-c]pyridin-5-yl)pyridin-3-yl)methanamine]: the pIC50 in assay [1] is under 5.00. In the assay with LL29 cells, the negative-log EC50 (pEC50) was at least 8.05.

Take `CCCC(=O)Nc1cncc(-c2cc3c(-c4nc5c(-c6cccs6)nccc5[nH]4)n[nH]c3cn2)c1` [Compound 329, N-(5-(3-(4-(Thiophen-2-yl)-1H-imidazo[4,5-c]pyridin-2-yl)-1H-pyrazolo[3,4-c]pyridin-5-yl)pyridin-3-yl)butyramide]: the pIC50 in assay [1] is 7.76. Moreover, the negative logarithm of the EC50 (pEC50) in the assay with LL29 cells was at most 5.00.

Regarding `FC1(F)CCN(Cc2cncc(-c3cc4c(-c5nc6c(-c7cccs7)nccc6[nH]5)n[nH]c4cn3)c2)C1` [Compound 337, 5-(5-((3,3-Difluoropyrrolidin-1-yl)methyl)pyridin-3-yl)-3-(4-(thiophen-2-yl)-1H-imidazo[4,5-c]pyridin-2-yl)-1H-pyrazolo[3,4-c]pyridine], in assay [1], the negative logarithm of the IC50 (pIC50) is 7.82. The negative logarithm of the EC50 (pEC50) with LL29 cells was at least 8.05.

With `CC(C)CC(=O)Nc1cncc(-c2cc3c(-c4nc5c(-c6ccc(F)s6)nccc5[nH]4)n[nH]c3cn2)c1` [Compound 340, N-(5-(3-(4-(5-Fluorothiophen-2-yl)-1H-imidazo[4,5-c]pyridin-2-yl)-1H-pyrazolo[3,4-c]pyridin-5-yl)pyridin-3-yl)-3-methylbutanamide], the pIC50 in assay [1] is 7.50. For the same compound, in the assay with LL29 cells, the pEC50 was 6.51.

Take `Fc1ccc(-c2nccc3[nH]c(-c4n[nH]c5cnc(-c6cncc(CN7CCCC7)c6)cc45)nc23)s1` [Compound 352, 3-(4-(5-Fluorothiophen-2-yl)-1H-imidazo[4,5-c]pyridin-2-yl)-5-(5-(pyrrolidin-1-ylmethyl)pyridin-3-yl)-1H-pyrazolo[3,4-c]pyridine]: the negative logarithm of the IC50 (pIC50) in assay [1] is 7.00. For the same compound, the negative logarithm of the EC50 (pEC50) in the assay with LL29 cells was at most 5.00.

In turn, `O=C(Nc1cncc(-c2cc3c(-c4nc5c(-c6ccc(F)s6)nccc5[nH]4)n[nH]c3cn2)c1)C1CCC1` [Compound 358, N-(5-(3-(4-(5-Fluorothiophen-2-yl)-1H-imidazo[4,5-c]pyridin-2-yl)-1H-pyrazolo[3,4-c]pyridin-5-yl)pyridin-3-yl)cyclobutanecarboxamide] gave a negative-log IC50 (pIC50) in assay [1] of 7.86. Besides, the negative-log EC50 (pEC50) in the assay with LL29 cells was 7.40.

In assay [1], `CCNCc1cncc(-c2cc3c(-c4nc5c(-c6ccc(C)s6)nccc5[nH]4)n[nH]c3cn2)c1` [Compound 370, N-((5-(3-(4-(5-Methylthiophen-2-yl)-1H-imidazo[4,5-c]pyridin-2-yl)-1H-pyrazolo[3,4-c]pyridin-5-yl)pyridin-3-yl)methyl)ethanamine] gave a pIC50 of 7.41. In addition, the pEC50 in the assay with LL29 cells was 6.24.

For the compound `Cc1ccc(-c2nccc3[nH]c(-c4n[nH]c5cnc(-c6cncc(NC(=O)C(C)(C)C)c6)cc45)nc23)s1` [Compound 372, N-(5-(3-(4-(5-Methylthiophen-2-yl)-1H-imidazo[4,5-c]pyridin-2-yl)-1H-pyrazolo[3,4-c]pyridin-5-yl)pyridin-3-yl)pivalamide], the negative logarithm of the IC50 (pIC50) in assay [1] was 7.61. In the assay on LL29 cells, the pEC50 is 5.96.

In turn, `Cc1ccc(-c2nccc3[nH]c(-c4n[nH]c5cnc(-c6cncc(NC(=O)C(C)C)c6)cc45)nc23)s1` [Compound 373, N-(5-(3-(4-(5-Methylthiophen-2-yl)-1H-imidazo[4,5-c]pyridin-2-yl)-1H-pyrazolo[3,4-c]pyridin-5-yl)pyridin-3-yl)isobutyramide] showed a pIC50 in assay [1] of 8.00. The pEC50 with LL29 cells is at least 8.05.

`Cc1ccc(-c2nccc3[nH]c(-c4n[nH]c5cnc(-c6cncc(CN7CCCCC7)c6)cc45)nc23)s1` [Compound 379, 3-(4-(5-Methylthiophen-2-yl)-1H-imidazo[4,5-c]pyridin-2-yl)-5-(5-(piperidin-1-ylmethyl)pyridin-3-yl)-1H-pyrazolo[3,4-c]pyridine] gave a pIC50 in assay [1] of 7.14. Besides, the negative-log EC50 (pEC50) in the assay on LL29 cells is at least 8.05.

Turning to `Cc1ccc(-c2nccc3[nH]c(-c4n[nH]c5cnc(-c6cncc(NC(=O)C7CCCC7)c6)cc45)nc23)s1` [Compound 385, N-(5-(3-(4-(5-Methylthiophen-2-yl)-1H-imidazo[4,5-c]pyridin-2-yl)-1H-pyrazolo[3,4-c]pyridin-5-yl)pyridin-3-yl)cyclopentanecarboxamide], in assay [1], the pIC50 is 6.78. Further, the pEC50 in the assay on LL29 cells was at least 8.05.

Take `CC(=O)c1ccc(-c2nccc3[nH]c(-c4n[nH]c5cnc(-c6cncc(NC(=O)Cc7ccccc7)c6)cc45)nc23)s1` [Compound 400, N-(5-(3-(4-(5-Acetylthiophen-2-yl)-1H-imidazo[4,5-c]pyridin-2-yl)-1H-pyrazolo[3,4-c]pyridin-5-yl)pyridin-3-yl)-2-phenylacetamide]: the negative logarithm of the IC50 (pIC50) in assay [1] is under 5.00. Also, in the assay with LL29 cells, the pEC50 was at least 8.05.
